From article PMC9516332 (Frontiers in Oncology, 2022)

How the values were obtained:
Assay in all cases: Kinase panel profiling at 1 µmol/L (MSA or IMAP), percentage inhibition
Format in all cases: biochemical
[1] = target: panel of 255 wild-type kinases (Homo sapiens, UniProt Q9UQM7); conditions: CaMK2α kinase assay; 1 µmol/L single concentration; read-out: %-inhibition CaMK2α
[2] = target: panel of 255 wild-type kinases (Homo sapiens, UniProt Q9P289); conditions: MST4; 1 µmol/L single concentration; read-out: %-inhibition, MST4
[3] = target: panel of 255 wild-type kinases (Homo sapiens, UniProt P08581); conditions: MET; 1 µmol/L single concentration
[4] = target: panel of 255 wild-type kinases (Homo sapiens, UniProt P17252); conditions: kinase PKCα; 1 µmol/L single concentration; read-out: %-inhibition at 1 µmol/L, PKCα
[5] = target: panel of 255 wild-type kinases (Homo sapiens, UniProt Q8N4C8); conditions: MINK; 1 µmol/L single concentration; read-out: %-inhibition, MINK
[6] = target: panel of 255 wild-type kinases (Homo sapiens, UniProt Q15208); conditions: NDR1; 1 µmol/L single concentration; read-out: %-inhibition, NDR1
[7] = target: T1, panel of 255 wild-type kinases (Homo sapiens, UniProt O43781); conditions: kinase DYRK3; 1 µmol/L single concentration; read-out: %-inhibition at 1 µmol/L, DYRK3
T1 sequence (O43781 1-588): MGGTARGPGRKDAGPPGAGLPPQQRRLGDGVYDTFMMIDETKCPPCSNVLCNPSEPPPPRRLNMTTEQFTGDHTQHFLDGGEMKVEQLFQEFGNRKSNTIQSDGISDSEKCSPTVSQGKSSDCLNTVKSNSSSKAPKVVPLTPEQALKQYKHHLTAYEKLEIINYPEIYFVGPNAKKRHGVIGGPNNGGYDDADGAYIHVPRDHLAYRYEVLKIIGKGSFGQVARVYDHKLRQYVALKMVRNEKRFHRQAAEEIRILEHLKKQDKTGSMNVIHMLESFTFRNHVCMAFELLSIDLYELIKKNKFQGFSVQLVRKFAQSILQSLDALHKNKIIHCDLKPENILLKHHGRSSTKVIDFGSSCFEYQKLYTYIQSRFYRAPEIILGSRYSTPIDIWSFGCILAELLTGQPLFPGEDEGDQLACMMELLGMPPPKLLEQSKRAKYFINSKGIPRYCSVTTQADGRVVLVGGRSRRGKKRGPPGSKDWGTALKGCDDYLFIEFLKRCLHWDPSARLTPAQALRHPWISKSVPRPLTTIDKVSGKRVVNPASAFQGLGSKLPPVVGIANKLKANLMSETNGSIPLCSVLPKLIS

[8] = target: panel of 255 wild-type kinases (Homo sapiens, UniProt P08922); conditions: kinase ROS; 1 µmol/L single concentration; read-out: %-inhibition at 1 µmol/L, ROS
[9] = target: panel of 255 wild-type kinases (Homo sapiens, UniProt P07332); conditions: kinase FES; 1 µmol/L single concentration; read-out: %-inhibition at 1 µmol/L, FES
[10] = target: panel of 255 wild-type kinases (Homo sapiens, UniProt P06213); conditions: kinase INSR; 1 µmol/L single concentration; read-out: %-inhibition at 1 µmol/L, INSR
[11] = target: panel of 255 wild-type kinases (Homo sapiens, UniProt Q14680); conditions: MELK; 1 µmol/L single concentration; read-out: %-inhibition, MELK
[12] = target: panel of 255 wild-type kinases (Homo sapiens, UniProt Q9P0L2); conditions: MARK1; 1 µmol/L single concentration; read-out: %-inhibition, MARK1
[13] = target: panel of 255 wild-type kinases (Homo sapiens, UniProt P49137); conditions: kinase MAPKAPK2; 1 µmol/L single concentration; read-out: %-inhibition at 1 µmol/L, MAPKAPK2
[14] = target: T2, panel of 255 wild-type kinases (Homo sapiens, UniProt Q8TDC3); conditions: BRSK1 kinase assay; 1 µmol/L single concentration; read-out: %-inhibition BRSK1
T2 sequence (Q8TDC3 1-778): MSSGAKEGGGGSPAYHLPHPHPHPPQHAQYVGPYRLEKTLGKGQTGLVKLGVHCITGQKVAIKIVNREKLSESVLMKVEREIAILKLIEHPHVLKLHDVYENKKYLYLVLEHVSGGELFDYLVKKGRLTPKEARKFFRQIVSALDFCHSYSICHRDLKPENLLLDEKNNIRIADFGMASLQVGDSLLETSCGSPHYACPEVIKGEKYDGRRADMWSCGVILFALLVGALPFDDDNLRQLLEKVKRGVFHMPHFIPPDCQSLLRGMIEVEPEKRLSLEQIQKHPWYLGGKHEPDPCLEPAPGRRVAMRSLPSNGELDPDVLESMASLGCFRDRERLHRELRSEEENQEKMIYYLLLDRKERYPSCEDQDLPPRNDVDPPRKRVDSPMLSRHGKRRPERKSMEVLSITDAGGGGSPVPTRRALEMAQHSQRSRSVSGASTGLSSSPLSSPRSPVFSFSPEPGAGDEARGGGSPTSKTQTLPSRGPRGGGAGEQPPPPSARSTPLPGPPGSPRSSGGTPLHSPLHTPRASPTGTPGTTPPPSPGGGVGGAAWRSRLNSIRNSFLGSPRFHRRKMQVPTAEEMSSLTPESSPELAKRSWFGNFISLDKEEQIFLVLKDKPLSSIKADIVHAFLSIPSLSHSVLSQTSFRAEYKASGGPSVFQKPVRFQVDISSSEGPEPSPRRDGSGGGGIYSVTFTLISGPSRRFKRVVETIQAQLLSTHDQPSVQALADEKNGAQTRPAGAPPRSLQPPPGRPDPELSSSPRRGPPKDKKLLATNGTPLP

[15] = target: panel of 255 wild-type kinases (Homo sapiens, UniProt Q86Z02); conditions: kinase HIPK1; 1 µmol/L single concentration; read-out: %-inhibition at 1 µmol/L, HIPK1
[16] = target: panel of 255 wild-type kinases (Homo sapiens, UniProt O00311); conditions: CDC7/ASK kinase assay; 1 µmol/L single concentration; read-out: %-inhibition CDC7/ASK

Compound: Cc1cc(Nc2ncnc3ccc(NC4=NC(C)(C)CO4)cc23)ccc1Oc1ccn2ncnc2c1 [tucatinib]
- inhibition at 1 µM [1]: -3%
- inhibition at 1 µM [2]: 3%
- inhibition at 1 µM [3]: 5.33%
- inhibition at 1 µM [4]: 5%
- inhibition at 1 µM [5]: -4.35%
- inhibition at 1 µM [6]: -0.331%
- inhibition at 1 µM [7]: 1.07%
- inhibition at 1 µM [8]: 21%
- inhibition at 1 µM [9]: 1.74%
- inhibition at 1 µM [10]: 3%
- inhibition at 1 µM [11]: 0.809%
- inhibition at 1 µM [12]: -7%
- inhibition at 1 µM [13]: -28%
- inhibition at 1 µM [14]: 0.339%
- inhibition at 1 µM [15]: 11%
- inhibition at 1 µM [16]: -0.857%

Compound: C=CC(=O)N1CCC([C@@H]2CCNc3c(C(N)=O)c(-c4ccc(Oc5ccccc5)cc4)nn32)CC1 [zanubrutinib]
- inhibition at 1 µM [1]: 2%
- inhibition at 1 µM [2]: -1%
- inhibition at 1 µM [3]: -2.35%
- inhibition at 1 µM [4]: -2.63%
- inhibition at 1 µM [5]: -1.27%
- inhibition at 1 µM [6]: -1.86%
- inhibition at 1 µM [7]: -6%
- inhibition at 1 µM [8]: 1.9%
- inhibition at 1 µM [9]: 1.42%
- inhibition at 1 µM [10]: 4%
- inhibition at 1 µM [11]: -0.631%
- inhibition at 1 µM [12]: -6%
- inhibition at 1 µM [13]: -9%
- inhibition at 1 µM [14]: -1.87%
- inhibition at 1 µM [15]: -3.58%
- inhibition at 1 µM [16]: -4%
